For test [1], the target named is benzodiazepine receptors. Briefly: specific binding to benzodiazepine receptors, [3H]-diazepam displacement. The note with it: [3H]diazepam 2 nM, pH 7.4, 4° C., 20 minutes. Here is the method:
The compounds (I) according to the invention were tested for their affinity for benzodiazepine receptors using radioactive [^3 H]-diazepam.
The assay for specific binding to benzodiazepine receptors was performed according to the method described in the literature (Nature, 266, 732 (1977); European J. Pharmacol., 48, 263 (1978)). Thus, a crude mitochondrial fraction obtained from the cerebral cortex of SD strain male rats aged 9 to 10 weeks was suspended in 50 mM Tris-HCl buffer (pH 7.4), followed by addition of the test drug at several concentration levels and of [^3 H]diazepam (final concentration 2 nM). Each suspension was incubated at 4° C. for 20 minutes and then filtered through a Whatman GF/B glassfiber filter, and the radioactivity of [^3 H]diazepam on the filter was measured with a liquid scintillation counter. In this manner, the IC50 value, namely the concentration of the test drug at which the [^3 H]diazepam binding was inhibited by 50%, was determined.

For test [2], the system named is male rat (SD/JCL). The experiment in a line: antianxiety activity, anticonflict test (Vogel et al.). It counts as in vivo. The note with it: po; orally administered, male rat, 30, 60 or 180 minutes after administration; read-out: Antianxiety activity MED. Here is the method: The antianxiety activity measurement was performed in accordance with Vogel et al. [Psychopharmacologia, 21, 1 (1970)] as follows: An apparatus comprising a large clear box with a stainless steel grid floor and a smaller opaque dark box provided with a drinking tube was arranged such that a rat placed therein could receive, on the sole, electric shocks through the grid floor following each twentieth lick. The test compound was orally administered to each male rat (SD/JCL) deprived of water for 48 hours prior to the test, which rat was then, 30, 60 or 180 minutes after administration, placed in the apparatus mentioned above and the number of licks was recorded over 3 minutes. The increase in the number of licks as compared with a physiological saline group was determined and taken as a measure of antianxiety potency, and the minimum effective dose determined accordingly.

Test [3] concerns rats. The experiment in a line: muscle relaxant activity, rotating rod. It counts as in vivo. Conditions: Rattus norvegicus, 1 min, 50% of rats fall off within 1 minute. Here is the method: Groups of 6 rats were used. The rats were placed on a rotating rod with a diameter of 3.5 cm. The rod rotated with a speed of 8 revolutions per minute. […] The dose, ED50, of the test compound as required to make 50% of the rats fall off the rod was calculated [J. Am. Pharmaceutical Association, 46, 208 (1957)].

Test [4] concerns mice. Briefly: sleep-inducing activity, potentiation of pentobarbital sleep. It counts as in vivo. The note with it: Mus musculus, oral, 30 minutes before pentobarbital 25 mg/kg i.p. The method, then:
Mice, in groups of eight, were orally administered the test compound and, 30 minutes later, intraperitoneally administered 25 mg/kg of pentobarbital. The loss of righting reflex which lasted for 2 minutes or longer during the 30-minute period following pentobarbital administration was taken as an indication of sleep potentiation. The dose, ED50, of the test compound as required to achieve sleep potentiation in 50% of mice was calculated.

On to `COc1ccc(N2C(=O)c3ccc(Cl)cc3C2CC(=O)N2CCC(=NO)CC2)cc1` (centres unmarked), for which the IC50 in test [1] was found to be 3.47 nM. That is a single-digit nanomolar value.

On to `COc1ccc(N2C(=O)c3ccc(Cl)cc3C2CC(=O)N2CCC(=O)CC2)cc1` (centres unmarked), for which the IC50 in test [1] came out at 2.4 nM.

`COc1ccc(N2C(=O)c3ccc([N+](=O)[O-])cc3C2CC(=O)N2CCC3(CC2)OCCO3)cc1` (centres unmarked) showed an IC50 in test [1] of 21.9 nM.

With `COc1ccc(N2C(=O)c3ccc(Cl)cc3C2CC(=O)N2CCC3(CC2)OCCO3)cc1` (centres unmarked), the 50% inhibitory concentration (IC50) in test [1] was found to be 8.71 nM.

For the compound `COc1ccc(N2C(=O)c3ccc([N+](=O)[O-])cc3C2CC(=O)N2CCC(=O)CC2)cc1` (centres unmarked), the IC50 in test [1] came to 6.16 nM.

Take `COc1ccc(N2C(=O)c3ccc([N+](=O)[O-])cc3C2CC(=O)N2CCC(=NO)CC2)cc1` (centres unmarked): the half-inhibitory concentration (IC50) in test [1] came out at 7.94 nM.

`O=C(CC1c2ccccc2C(=O)N1c1ccc2ccc(Cl)nc2n1)N1CCC(=NO)CC1` (centres unmarked): the IC50 in test [1] amounted to 0.645 nM.

Consider `CC1(C)COC2(CCN(C(=O)CC3c4ccccc4C(=O)N3c3ccc4ccc(Cl)nc4n3)CC2)OC1` (centres unmarked), for which the concentration for half-maximal inhibition (IC50) in test [1] was 2.4 nM.

As to `O=C(CC1c2ccccc2C(=O)N1c1ccc2ccc(Cl)nc2n1)N1CCC2(CC1)OCCCO2` (centres unmarked), the IC50 in test [1] is 4.9 nM.

As for `O=C(CC1c2ccccc2C(=O)N1c1ccc2ccc(Cl)nc2n1)N1CCC2(CC1)SCCCS2` (centres unmarked), in test [1], the half-inhibitory concentration (IC50) was determined as 0.562 nM.

Consider `O=C(CC1c2ccccc2C(=O)N1c1ccc2ccc(Cl)nc2n1)N1CCC2(CC1)SCCS2` (centres unmarked), for which, in test [1], the concentration for half-maximal inhibition (IC50) amounted to 1.23 nM.

As for `CC(=O)OC1CCN(C(=O)CC2c3ccccc3C(=O)N2c2ccc3ccc(Cl)nc3n2)CC1` (centres unmarked), the concentration for half-maximal inhibition (IC50) in test [1] was found to be 0.501 nM. This IC50 lies about 2.5-fold lower than the previous one.

For `CCC(=O)OC1CCN(C(=O)CC2c3ccccc3C(=O)N2c2ccc3ccc(Cl)nc3n2)CC1` (centres unmarked), the IC50 in test [1] worked out at 1 nM. This IC50 is about 2-fold higher than that of the compound before.

With `O=C1CCN(C(=O)CC2c3ccccc3C(=O)N2c2ccc3ccc(Cl)nc3n2)CC1` (centres unmarked) [drawing 16], the concentration for half-maximal inhibition (IC50) in test [1] came out at 0.537 nM.

The compound `O=C(CC1c2ccccc2C(=O)N1c1ccc2ccc(Cl)nc2n1)N1CCC2(CC1)OCCO2` (centres unmarked) [drawing 17] registered a half-maximal inhibitory concentration (IC50) in test [1] of 0.38 nM.

`COC1(OC)CCN(C(=O)CC2c3ccccc3C(=O)N2c2ccc3ccc(Cl)nc3n2)CC1` (centres unmarked) [drawing 19] returned an IC50 in test [1] of 1.29 nM.

In test [1], `O=C(CC1c2ccccc2C(=O)N1c1ccc2ccc(Cl)nc2n1)N1CCC(O)CC1` (centres unmarked) [drawing 34] came in with an IC50 of 0.794 nM. This IC50 is about 1.6-fold lower than that of the compound before.

As for `O=C(CC1c2ccccc2C(=O)N1c1ccc2ccc(Cl)nc2n1)N1CCC2(CC1)OCCO2` (centres unmarked) [drawing 36], the minimal effective dose in test [2] stood at 5 mg/kg. For the same compound, the 50% effective dose (ED50) in test [3] is above 80 mg/kg; in test [4], above 50 mg/kg.

Take `O=C1CCN(C(=O)CC2c3ccccc3C(=O)N2c2ccc3ccc(Cl)nc3n2)CC1` (centres unmarked) [drawing 38]: the minimal effective dose in test [2] stood at 20 mg/kg. For the same compound, the results for the median effective dose (ED50) in test [3] and in test [4] were above 80 mg/kg and 24.3 mg/kg, respectively.

Turning to `COC1(OC)CCN(C(=O)CC2c3ccccc3C(=O)N2c2ccc3ccc(Cl)nc3n2)CC1` (centres unmarked) [drawing 39], the minimal effective dose in test [2] was below 20 mg/kg. Besides, the results for the 50% effective dose (ED50) in test [3] and in test [4] were above 40 mg/kg and around 50 mg/kg, respectively.

Regarding `O=C(CC1c2ccccc2C(=O)N1c1ccc2ccc(Cl)nc2n1)N1CCC(O)CC1` (centres unmarked) [drawing 41], the minimal effective dose in test [2] is above 30 mg/kg. The 50% effective dose (ED50) in test [3] was above 80 mg/kg; in test [4], 40.2 mg/kg.

The values are drawn from patent publication US4778801A, “Isoindolinone derivatives, production and use thereof” (Takeda Chemical Industries, Ltd., priority 1984, dated 1988).
